In the NIST ThermoML archive (doi:10.1016/j.jct.2017.05.001):
Numbers after ± are expanded uncertainties.

Assay: wn = mass fraction of the nth substance listed
Conditions: Liquid; for viscosity: Falling or rolling sphere viscometry; for mass density: Vibrating tube method

CN(C)CCO [2-(N,N-dimethylamino)ethanol] + O
Conditions | mass density, w1 = 0.1005 [kg/m3] | mass density, w1 = 0.202 [kg/m3] | mass density, w1 = 0.3005 [kg/m3] | mass density, w1 = 0.3995 [kg/m3] | viscosity, w1 = 0.1005 [mPa·s] | viscosity, w1 = 0.202 [mPa·s] | viscosity, w1 = 0.3005 [mPa·s] | viscosity, w1 = 0.3995 [mPa·s]
373.15 K, 30000 kPa | 964.4 ± 0.7 | 956.3 ± 0.7 | 947.9 ± 0.7 | 938.5 ± 0.7 | 0.3711 ± 0.012 | 0.4702 ± 0.015 | 0.6099 ± 0.02 | 0.7742 ± 0.025
373.15 K, 40000 kPa | 968.7 ± 0.7 | 960.9 ± 0.7 | 952.4 ± 0.7 | 943.3 ± 0.7 | 0.3746 ± 0.012 | 0.4771 ± 0.016 | 0.6239 ± 0.021 | 0.7998 ± 0.026
373.15 K, 50000 kPa | 972.8 ± 0.7 | 964.9 ± 0.7 | 956.6 ± 0.7 | 947.6 ± 0.7 | – | – | – | –
373.15 K, 60000 kPa | 976.8 ± 0.7 | 968.9 ± 0.7 | 960.9 ± 0.7 | 952.1 ± 0.7 | 0.3833 ± 0.013 | 0.4923 ± 0.016 | 0.6493 ± 0.021 | 0.8409 ± 0.028
373.15 K, 70000 kPa | 980.9 ± 0.7 | 973 ± 0.7 | 965 ± 0.7 | 956.2 ± 0.7 | – | – | – | –
373.15 K, 80000 kPa | 984.7 ± 0.7 | 976.9 ± 0.7 | 969.1 ± 0.7 | 960.4 ± 0.7 | 0.3916 ± 0.013 | 0.5073 ± 0.017 | 0.6735 ± 0.022 | 0.8827 ± 0.029
373.15 K, 90000 kPa | 988.6 ± 0.7 | 980.6 ± 0.7 | 972.8 ± 0.7 | 964.3 ± 0.7 | – | – | – | –
373.15 K, 100000 kPa | 992.1 ± 0.7 | 984.3 ± 0.7 | 976.4 ± 0.7 | 968.1 ± 0.7 | 0.3984 ± 0.013 | 0.5213 ± 0.017 | 0.6978 ± 0.023 | 0.9306 ± 0.031
373.15 K, 110000 kPa | 995.9 ± 0.7 | 988 ± 0.7 | 980.3 ± 0.7 | 971.9 ± 0.7 | – | – | – | –
373.15 K, 120000 kPa | 999.5 ± 0.7 | 991.6 ± 0.7 | 983.8 ± 0.7 | 975.6 ± 0.7 | – | – | – | –
373.15 K, 130000 kPa | 1003 ± 0.7 | 995 ± 0.7 | 987.3 ± 0.7 | 979.1 ± 0.7 | – | – | – | –
373.15 K, 140000 kPa | 1006.3 ± 0.7 | 998.4 ± 0.7 | 990.7 ± 0.7 | 982.6 ± 0.7 | – | – | – | –
393.15 K, 100 kPa | 934.5 ± 0.7 | 925.2 ± 0.7 | 915 ± 0.7 | 903.9 ± 0.7 | – | – | – | –
393.15 K, 500 kPa | 934.9 ± 0.7 | 925.5 ± 0.7 | 915.5 ± 0.7 | 904.3 ± 0.7 | – | – | – | –
393.15 K, 1000 kPa | 935.1 ± 0.7 | 925.7 ± 0.7 | 915.7 ± 0.7 | 904.6 ± 0.7 | – | – | – | –
393.15 K, 2000 kPa | 935.6 ± 0.7 | 926.3 ± 0.7 | 916.3 ± 0.7 | 905.2 ± 0.7 | – | – | – | –
393.15 K, 5000 kPa | 937.1 ± 0.7 | 927.9 ± 0.7 | 917.9 ± 0.7 | 907 ± 0.7 | 0.2917 ± 0.0096 | 0.3533 ± 0.012 | 0.4325 ± 0.014 | 0.5209 ± 0.017
393.15 K, 10000 kPa | 939.7 ± 0.7 | 930.5 ± 0.7 | 920.8 ± 0.7 | 910 ± 0.7 | 0.2952 ± 0.0097 | 0.3557 ± 0.012 | 0.4367 ± 0.014 | 0.5259 ± 0.017
393.15 K, 15000 kPa | 942.1 ± 0.7 | 933 ± 0.7 | 923.4 ± 0.7 | 912.8 ± 0.7 | 0.2973 ± 0.0098 | 0.3585 ± 0.012 | 0.4425 ± 0.015 | 0.5368 ± 0.018
393.15 K, 20000 kPa | 944.6 ± 0.7 | 935.6 ± 0.7 | 926.1 ± 0.7 | 915.7 ± 0.7 | 0.2998 ± 0.0098 | 0.3624 ± 0.012 | 0.4483 ± 0.015 | 0.5458 ± 0.018
393.15 K, 25000 kPa | – | – | – | – | 0.3019 ± 0.0099 | 0.366 ± 0.012 | 0.4536 ± 0.015 | 0.5538 ± 0.018
393.15 K, 30000 kPa | 949.3 ± 0.7 | 940.5 ± 0.7 | 931.2 ± 0.7 | 921 ± 0.7 | 0.3036 ± 0.01 | 0.3687 ± 0.012 | 0.4597 ± 0.015 | 0.5613 ± 0.018
393.15 K, 40000 kPa | 953.9 ± 0.7 | 945.2 ± 0.7 | 936.2 ± 0.7 | 926.3 ± 0.7 | 0.3078 ± 0.01 | 0.3736 ± 0.012 | 0.4697 ± 0.015 | 0.578 ± 0.019
393.15 K, 50000 kPa | 958.2 ± 0.7 | 949.6 ± 0.7 | 940.8 ± 0.7 | 931 ± 0.7 | – | – | – | –
393.15 K, 60000 kPa | 962.6 ± 0.7 | 954.1 ± 0.7 | 945.3 ± 0.7 | 935.9 ± 0.7 | 0.3147 ± 0.01 | 0.3862 ± 0.013 | 0.489 ± 0.016 | 0.6086 ± 0.02
393.15 K, 70000 kPa | 966.9 ± 0.7 | 958.5 ± 0.7 | 949.8 ± 0.7 | 940.5 ± 0.7 | – | – | – | –
393.15 K, 80000 kPa | 971 ± 0.7 | 962.4 ± 0.7 | 953.9 ± 0.7 | 944.8 ± 0.7 | 0.322 ± 0.011 | 0.3985 ± 0.013 | 0.5076 ± 0.017 | 0.6407 ± 0.021
393.15 K, 90000 kPa | 975 ± 0.7 | 966.6 ± 0.7 | 958.1 ± 0.7 | 949.2 ± 0.7 | – | – | – | –
393.15 K, 100000 kPa | 978.8 ± 0.7 | 970.5 ± 0.7 | 962.2 ± 0.7 | 953.2 ± 0.7 | 0.3308 ± 0.011 | 0.4097 ± 0.013 | 0.5265 ± 0.017 | 0.6716 ± 0.022
393.15 K, 110000 kPa | 982.7 ± 0.7 | 974.3 ± 0.7 | 966 ± 0.7 | 957.3 ± 0.7 | – | – | – | –
393.15 K, 120000 kPa | 986.5 ± 0.7 | 978.2 ± 0.7 | 969.9 ± 0.7 | 961.2 ± 0.7 | – | – | – | –
393.15 K, 130000 kPa | 990 ± 0.7 | 981.7 ± 0.7 | 973.5 ± 0.7 | 964.9 ± 0.7 | – | – | – | –
393.15 K, 140000 kPa | 993.7 ± 0.7 | 985.3 ± 0.7 | 977.2 ± 0.7 | 968.9 ± 0.7 | – | – | – | –
